{"source": "patent US20070196488A1", "about": "“Oral matrix formulations comprising licarbazepine” (priority 2004, published 2007)", "origin": "cited, not measured here", "tested_on": "epilepsy", "details": "racemate compared with both pure enantiomers"}
{"smiles": "NC(=O)N1c2ccccc2CC(O)c2ccccc21", "note": "(racemic) [Licarbazepine, 10,11-dihydro-10-hydroxy-5H-dibenz[b,f]azepine-5-carboxamide]", "values": [{"measurement": "efficacy against epilepsy", "value": "equal efficacy"}]}
